This note sets out measurements from patent publication US9034871B2, “Compounds for Alzheimer's disease” (priority 2004, dated 2015).

In this experiment the test system is Aβ42. Nature of the experiment: Detection of secreted Aβ42 with Biosource ELISA kit in H4 cells expressing APP695. It is filed as cell-based. How it is done: The present invention provides compositions and methods for lowering Aβ42 levels. To test whether compounds and compositions are capable of modulating Aβ levels, a sandwich enzyme-linked immunosorbent assay (ELISA) is employed to measure secreted Aβ (Aβ42 and/or Aβ40) levels. In this example, H4 cells expressing wide type APP695 are seeded at 200,000 cells/per well in 6 well plates, and incubated at 37 degree C. with 5% CO2 overnight. Cells are treated with 1.5 ml medium containing vehicle (DMSO) or a test compound at 1.25 μM, 2.5 μM, 5.0 μM and 10.0 μM (as well as other concentration if desirable) concentration for 24 hours or 48 hours. The supernatant from treated cells is collected into eppendorf tubes and frozen at −80 degree C. for future analysis.
The amyloid peptide standard is reconstituted and frozen samples are thawed. The samples and standards are diluted with appropriate diluents and the plate is washed 4 times with Working Wash Buffer and patted dry on a paper towel. 100 μL per well of peptide standards, controls, and dilutions of samples to be analyzed is added. The plate is incubated for 2 hours while shaking on an orbital plate shaker at RT. The plate is then washed 4 times with Working Wash Buffer and patted dry on a paper towel. Detection Antibody Solution is poured into a reservoir and 100 μL /well of Detection Antibody Solution is immediately added to the plate. The plate is incubated at RT for 2 hours while shaking and then washed four times with Working Wash Buffer and patted dry on a paper towel. Secondary Antibody Solution is then poured into a reservoir and 100 μL /well of Secondary Antibody Solution is immediately added to the plate. The plate is incubated at RT for 2 hours with shaking, washed 5 times with Working Wash Buffer, and patted dry on a paper towel.
100 μL of stabilized chromogen is added to each well and the liquid in the wells begins to turn blue. The plate is incubated for 30 minutes at room temperature and in the dark. 100 μL of stop solution is added to each well and the plate is tapped gently to mix resulting in a change of solution color from blue to yellow. The absorbance of each well is read at 450 nm having blanked the plate reader against a chromogen blank composed of 100 μL each of stabilized chromogen and stop solution. The plate is read within 2 hours of adding the stop solution. The absorbance of the standards is plotted against the standard concentration and the concentrations of unknown samples and controls are calculated.
These compounds were synthesized via the indicated synthetic route. Ab42 IC50 (uM) refers to IC50 value for Ab42 lowering in e.g., the assay described in Example 6.
(In an ELISA, binding on a coated surface is turned into a signal by an enzyme label.)

The mark [1] stands for this setting: Ab42 lowering, cell based assay, read-out: Ab42 IC50.
Where [2] appears, read: IC50 value for Ab42 lowering in e.g. the assay described in Example 6, read-out: Ab42 IC50.

For orientation: IC50 means the concentration needed to halve the response being measured.

Like-named read-outs stand apart in the source and are kept apart here.

Turning to `O=C(O)c1coc(Cn2c(-c3cc(-c4ccccc4)no3)cc3c4ccccc4ccc32)c1` [5-[2-(3-phenylisoxazol-5-yl)-benzo[e]indol-3-ylmethyl] furan-3-carboxylic acid], under setting [1], the IC50 was above 100 µM.
For the molecule `CCC(C)(C)C1CCc2c(cc(-c3ccccc3)n2-c2nc(CC(=O)O)cs2)C1` (stereo not shown) [{2-[5-(1,1-dimethylpropyl)-2-phenyl-4,5,6,7-tetrahydroindol-1-yl]-thiazol-4-yl} acetic acid], the 50% inhibitory concentration (IC50) under setting [1] turned out to be 6.5 µM.
For the molecule `CC(C)(C)C1CCc2c(cc(-c3ccccc3)n2-c2ccc(C(=O)O)o2)C1` (stereo not shown) [5-(5-tertButyl-2-phenyl-4,5,6,7-tetrahydroindol-1-yl) furan-2-carboxylic acid], the 50% inhibitory concentration (IC50) under setting [1] worked out at 3.7 µM.
Regarding `O=C(O)Cc1ccccc1-n1c(-c2ccccc2)cc2c1CCc1ccccc1-2` [Compound 92, [2-(2-phenyl-4,5-dihydrobenzo[e]indol-3-yl)-phenyl] acetic acid], under setting [2], the IC50 was 27 µM.
With `CC(C)(C)C1CCc2c(cc(-c3ccccc3)n2-c2nnc[nH]2)C1` (stereo not shown) [5-tButyl-2-phenyl-1-(4H-[1,2,4]triazol-3-yl)-4,5,6,7-tetrahydro-1H-indole], the concentration for half-maximal inhibition (IC50) under setting [1] was 63 µM.
Still for that read-out and setting: under `O=C(O)c1ccc(-n2c(-c3ccccc3)cc3c4ccccc4ccc32)o1` [5-(2-phenylbenzo[e]indol-3-yl)furan-2-carboxylic acid] stands 22 µM; under `O=C(O)c1cccc(-n2c(-c3cc4ccccc4o3)cc3c2CCc2ccccc2-3)c1` [3-(2-benzofuran-2-yl-4,5-dihydrobenzo[e]indol-3-yl) benzoic acid], 0.56 µM.
On the same count and under the same terms, under `O=C(O)c1cccc(-n2c(-c3cccnc3)cc3c4ccccc4ccc32)c1` [3-(2-pyridin-3-yl-benzo[e]indol-3-yl) benzoic acid] stands above 100 µM.
In the case of `O=C(O)CCCn1c(-c2ccccc2)cc2c3ccccc3ccc21` [Compound 68, 4-(2-phenyl-benzo[e]indol-3-yl) butyric acid], the IC50 under setting [2] is 31 µM.
On to `O=C(O)c1ccc(-n2c(-c3ccccc3)cc3c2CCC(C(F)(F)F)C3)o1` (stereo not shown) [5-(2-phenyl-5-trifluoromethyl 4,5,6,7-tetrahydroindol-1-yl)-furan-2-carboxylic acid], for which the IC50 under setting [1] stood at 16.5 µM.
On to `O=C(O)c1cccc(-n2c(-c3ccccc3)cc3c2CC(c2ccccn2)CC3)c1` (stereo not shown) [3-(2-phenyl-6-pyridin-2-yl-4,5,6,7-tetrahydroindol-1-yl) benzoic acid], for which the half-inhibitory concentration (IC50) under setting [1] is 70.8 µM.
On the same count and under the same terms, under `O=C(O)c1cccc(-n2c(-c3ccncc3)cc3c4ccccc4ccc32)c1` [3-(2-pyridin-4-yl-benzo[e]indol-3-yl) benzoic acid] stands 81 µM; under `O=C(O)CCCc1ccc(-n2c(-c3ccc(-c4ccc(Cl)cc4Cl)o3)cc3c4ccccc4ccc32)cc1` [4-(4-{2-[5-(2 4-dichlorophenyl)-furan-2-yl]-benzo[e]indol-3-yl}-phenyl) butyric acid], 17 µM; under `O=C(O)c1cccc(-n2c(-c3ccccn3)cc3c4ccccc4ccc32)c1` [3-(2-pyridin-2-yl-benzo[e]indol-3-yl) benzoic acid], 79 µM.
Still for that read-out and setting: under `O=C(O)c1cccc(-n2c(-c3cc4ccccc4o3)cc3c4ccccc4ccc32)c1` [3-(2-benzofuran-2-yl-benzo[e]indol-3-yl) benzoic acid] stands 1.17 µM.
On the same count and under the same terms, in the case of `c1cc(-c2nn[nH]n2)cc(-n2c(-c3ccncc3)cc3c2CCc2ccccc2-3)c1` [2-pyridin-4-yl-3-[3-(2H-tetrazol-5-yl)-phenyl]-4,5-dihydro-3H-benzo[e]indole] it was 73 µM.
As to `Cc1onc(-c2ccccc2)c1-c1cc2c(n1-c1ccc(CCCC(=O)O)cc1)CCc1ccccc1-2` [4-{4-[2-(5-methyl-3-phenylisoxazol-4-yl)-4,5-dihydrobenzo[e]indol-3-yl]-phenyl} butyric acid], the half-inhibitory concentration (IC50) under setting [1] worked out at 1.5 µM.
Same read-out and setting: in the case of `O=C(O)c1cccc(-n2c(-c3ccccn3)cc3c2CCc2ccccc2-3)c1` [3-(2-pyridin-2-yl-4,5-dihydrobenzo[e]indol-3-yl) benzoic acid] it was 70 µM.
For the molecule `CC(C)(C)C1CCc2c(cc(-c3ccc(C(F)(F)F)cc3)n2-c2ccc(C(=O)O)o2)C1` (stereo not shown) [5-[5-tButyl-2-(4-trifluoromethylphenyl)-4,5,6,7-tetrahydroindol-1-yl] furan-2-carboxylic acid], under setting [1], the half-inhibitory concentration (IC50) stood at 14 µM.
Regarding `O=C(O)CCCn1c(-c2ccccc2)cc2c1CCc1ccccc1-2` [Compound 67, 4-(2-phenyl-4,5-dihydrobenzo[e]indol-3-yl) butyric acid], the IC50 under setting [2] came to 35 µM.
Take `CCC(C)(C)C1CCc2c(cc(-c3cc4ccccc4o3)n2-c2ccc(C(=O)O)o2)C1` (stereo not shown) [5-[2-benzofuran-2-yl-5-(1,1-dimethylpropyl) 4,5,6,7-tetrahydroindol-1-yl]-furan-2-carboxylic acid]: the IC50 under setting [1] came out at 18 µM.
Same read-out and setting: in the case of `O=C(O)c1cccc(-n2c(-c3ccc4c(c3)OCO4)cc3c2CCc2ccccc2-3)c1` [3-(2-benzo[1,3]dioxol-5-yl-4,5-dihydrobenzo[e]indol-3-yl) benzoic acid] it was 18 µM; in that of `Cc1onc(-c2ccccc2)c1-c1cc2c3ccccc3ccc2n1-c1cccc(-c2nn[nH]n2)c1`, 31 µM.
For `c1ccc(-c2cc(-c3cc4c(n3-c3cccc(-c5nn[nH]n5)c3)CCc3ccccc3-4)on2)cc1` [Compound 138, 2-(3-phenylisoxazol-5-yl)-3-[3-(2H-tetrazol-5-yl)-phenyl]-4,5-dihydro-3H-benzo[e]indole], the IC50 (cell based assay described in Example 6, read-out: Ab42 lowering IC50) stood at 10 µM.
As to `O=C(O)c1ccc(-n2c(-c3ccc(Cl)c(Cl)c3)cc3c2CCCC3C(F)(F)F)o1` (stereo not shown) [5-[2-(3,4-dichlorophenyl)-4-trifluoromethyl-4,5,6,7-tetrahydroindol-1-yl]-furan-2-carboxylic acid], the half-maximal inhibitory concentration (IC50) under setting [1] was determined as 7.36 µM.
For the molecule `O=C(O)CCc1cccc(-n2c(-c3ccccc3)cc3c2CCCC3)c1` [Compound 90, 3-[3-(2-phenyl-4,5,6,7-tetrahydroindol-1-yl)-phenyl] propionic acid], the concentration for half-maximal inhibition (IC50) under setting [2] was 54 µM.
Turning to `O=C(O)c1ccc(-n2c(-c3cc4ccccc4o3)cc3c2CCC(C(F)(F)F)C3)o1` (stereo not shown) [5-(2-benzofuran-2-yl-5-trifluoromethyl-4,5,6,7-tetrahydroindol-1-yl)-furan-2-carboxylic acid], the 50% inhibitory concentration (IC50) under setting [1] came out at 44 µM.
On to `O=C(O)c1cccc(-c2cc3c4ccccc4ccc3n2-c2ccoc2)c1` [3-(3-furan-3-yl-3H-benzo[e]indol-2-yl) benzoic acid], for which, under setting [1], the IC50 was above 100 µM.
As for `O=C(O)c1cccc(-n2c(-c3ccc4c(c3)OCO4)cc3c4ccccc4ccc32)c1` [3-(2-benzo[1,3]dioxol-5-yl-benzo[e]indol-3-yl) benzoic acid], the IC50 under setting [1] turned out to be 20 µM.
Regarding `O=C(O)c1ccc(-c2cc3c4ccccc4ccc3n2-c2ccoc2)cc1` [4-(3-furan-3-yl-3H-benzo[e]indol-2-yl) benzoic acid], the IC50 under setting [1] was above 100 µM.
Same read-out and setting: under `Cc1onc(-c2ccccc2)c1-c1cc2c3ccccc3ccc2n1-c1ccc(CCCC(=O)O)cc1` [4-{4-[2-(5-methyl-3-phenylisoxazol-4-yl)-benzo[e]indol-3-yl]-phenyl} butyric acid] stands 1 µM.
Still for that read-out and setting: under `O=C(O)c1ccc(-n2c(-c3ccc(C(F)(F)F)cc3)cc3c4ccccc4ccc32)o1` [5-[2-(4-trifluoromethylphenyl)-benzo[e]indol-3-yl]-furan-2-carboxylic acid] stands 21 µM.
Still for that read-out and setting: under `CCC(C)(C)C1CCc2c(cc(-c3cc4ccccc4o3)n2-c2cccc(C(=O)O)c2)C1` (stereo not shown) [3-[2-benzofuran-2-yl-5-(1,1-dimethylpropyl) 4,5,6,7-tetrahydroindol-1-yl] benzoic acid] stands 3.7 µM; under `COc1ccc(-c2cc3c(n2-c2nc(C(=O)O)cs2)CCC(C(F)(F)F)C3)c(OC)c1` (stereo not shown) [2-[2-(2,4-dimethoxyphenyl)-5-trifluoromethyl-4,5,6,7-tetrahydroindol-1-yl]-thiazole-4-carboxylic acid], above 100 µM.
With `COC(=O)c1ccc(-n2c(-c3ccccc3)cc3c2CCC(C(C)(C)C)C3)o1` (stereo not shown) [5-(5-tertButyl-2-phenyl-4,5,6,7-tetrahydroindol-1-yl) furan-2-carboxylic acid methyl ester], under setting [1], the IC50 is above 100 µM.
Still for that read-out and setting: under `CC(C)(C)C1CCc2c(cc(-c3ccc(Cl)c(Cl)c3)n2-c2ccc(C(=O)O)o2)C1` (stereo not shown) [5-[5-tButyl-2-(3,4-dichlorophenyl)-4,5,6,7-tetrahydroindol-1-yl] furan-2-carboxylic acid] stands 11.7 µM; under `O=C(O)c1ccc(-n2c(-c3cc(-c4ccccc4)no3)cc3c4ccccc4ccc32)o1` [5-[2-(3-phenylisoxazol-5-yl)-benzo[e]indol-3-yl] furan-2-carboxylic acid], 33 µM.
